Source: US12324827B2, “Combination therapy for the treatment of migraines” (The University of Chicago, priority 2019, dated 2025)
Where “and” joins values, the source holds several entries; their conditions need not be identical. Equal values may be shown once.

Experiments:
[1] = test system: trigeminal ganglion malondialdehyde; assay: Malondialdehyde (oxidative stress) immunostaining of trigeminal ganglion after recurrent spreading depression; type: in vivo, rat
Method: N2B delivery of 150 μg human recombinant IGF-1 (#191-G1; R&D Systems, Minneapolis, MN) in 50 μL sodium succinate buffer followed the previously described approach (21,51) that was based on the techniques of Liu and coworkers (24) in the recording laboratory under isoflurane anesthesia with spontaneous ventilation.
Induction of recurrent SD followed previously published aseptic techniques from the inventors' laboratory (8, 13, 21, 25, 26, 51) (FIG. 4). […]
(§1) Imaging was performed using a Photometrics self-calibrating digital camera QuantEM-512SC camera (500×500 pixels; Photometrics, Tucson, AZ) run on MetaMorph software (v. 7.0.4; Molecular Devices, Sunnyvale, CA) under blinded conditions (as previously described (13, 20-22). Image exposure, camera gain and thresholding were uniformly set (i.e., equivalently for experimental and sham groups for each imaging metric (i.e., MDA, CGRP and c-fos). Resultant images were digitally stored as TIFF files for subsequent analyses that continued under blinded conditions where image integrated fluorescence intensity was registered using MetaMorph software for MDA and CGRP.
Images of MDA and CGRP were analyzed while blinded and later decoded to ratios of experimental/sham image integrated optical intensity, a sensitive metric that not only accounts for the area but also the pixel intensity of related image fluorescence. […]

[2] = test system: trigeminal ganglion CGRP; assay: CGRP immunostaining of trigeminal ganglion (V1) in naïve animals 24 hours after N2B IGF-1; type: in vivo, rat
Method: 24 hours later animals were re-anesthetized, brains harvested and processed for CGRP immunostaining of the TG. Images were obtained from each animal and image fluorescence intensity quantified via a digital imaging strategy. Three images were measured per animal and the averages recorded. Nasal delivery and image processing was completed while blinded to conditions. Experiments, immunostaining and imaging were done in pairs (i.e., sham and IGF-1) to reduce potential variability. […] This reduction was significant (p<0.001; alpha=0.05; power of 1.00). Scale bar=50 μm. […]
The inventors used computer-based and blinded semi-quantitative digital quantification of immunostaining metrics to test the ability of N2B IGF-1 to impact TS activation. […]
as §1, with “CGRP. […]” for “CGRP.”

**Q.** How did the “reduction of malondialdehyde levels in the trigeminal ganglion after recurrent SD” value ([1]; N2B IGF-1 150 μg a day before 90 minutes of recurrent SD, p<0.001) turn out when “IGF-1: human recombinant IGF-1 (#191-G1; R&D Systems), 150 μg in 50 μL sodium succinate buffer, delivered nose-to-brain” was run?
**A.** 82% and 83%

**Q.** What about the “natural logarithm ratio (IGF-1/sham) of MDA immunostaining after recurrent SD” value ([1]; n=5/group) of the same substance?
**A.** −1.37±0.40

**Q.** What about the “reduction of CGRP levels in the trigeminal ganglion of naïve animals” value ([2]; N2B IGF-1 150 μg versus sham, 24 hours, p<0.001) of the same substance?
**A.** ~75%

**Q.** What about the “natural logarithm ratio (IGF-1/sham) of CGRP immunostaining, naïve animals” value ([2]; n=7/group) of the same substance?
**A.** −1.66±0.32
